Assay results as given in PMC12076188 (Cancer Research Communications, 2025).
“Also recorded” adds a separate entry of the source.

Key:
[1] = test system: p-ERK1/2 (Thr202/Tyr204) in NCI-H1792 cells (KRAS p.G12C); assay: cells; conditions: Homo sapiens, NCI-H1792, 2 h, read-out: p-ERK IC50 (nM)
Experimental: For phospho-ERK (p-ERK) assays, cells were seeded in 96-well plates with appropriate density (refer to Supplementary Table S3) and incubated overnight, followed by treatment with a series of concentrations of compounds in the assay medium (containing 0.1% FBS) for 2 hours. Then p-ERK1/2 (Thr202/Tyr204) was detected using the advanced p-ERK1/2 (Thr202/Tyr204) cellular kit (Cisbio/Revvity) according to the manufacturer’s instructions. For phospho-AKT (p-AKT) assays, cells with appropriate density (refer to Supplementary Table S3) were treated with a series of concentrations of compound in culture medium for 24 hours in 96-well plates. Then, p-AKT1/2/3 (Ser473) was detected using the p-AKT1/2/3 (Ser473) cellular kit (Cisbio/Revvity) according to the manufacturer’s instructions. HTRF signals were recorded by the Tecan Spark multimode microplate reader (RRID: SCR_021897). The IC50 values were calculated using GraphPad Prism (RRID: SCR_002798) by fitting a four-parameter dose–response curve.
(§1) WT: wild type; AMP: amplification; CTG: CellTiter-Glo.

[2] = test system: cysteine-containing peptides in NCI-H358 cells; assay: Cysteine proteome analysis; format: cell-based, human; conditions: NCI-H358, 1 μmol/L, 4 hours, n = 5
Experimental: The cysteine proteome analysis was performed by IQ Proteomics. Briefly, collected cell pellets were lysed and treated to label remaining unreacted cysteines. Labeled peptides were enriched by streptavidin agarose and analyzed by nano LC/MS. The adjusted P values were calculated according to the Benjamini–Hochberg method using the JMP statistical analysis software. Log2 fold changes between the glecirasib-treated group and DMSO controls were taken as the abscissa (x-axis), and statistical significance (P value) of the difference between the glecirasib-treated group and DMSO controls was taken as the ordinate (y-axis).

SW1463 cells = assay: 3D cell viability combination study with cetuximab (Loewe synergy); format: cell-based; conditions: Homo sapiens
Experimental: (§2) The inhibitory activity of compounds on Ba/F3-engineered cell line viability was tested by Kyinno Biotechnology. Other cell viability assays on human cancer cell lines were conducted in-house. Cells were seeded in 96-well plates and incubated overnight, followed by treatment with various concentrations of compounds or solvent control for 6 days. Cell viability was detected using either the CellTiter-Glo (CTG) luminescent cell viability assay or the CTG 3D cell viability assay (Promega) for 2D and 3D CTG assays, respectively. For 3D CTG assays, cells were plated in round-bottom ultra-low attachment 96-well plates (Corning 7007). The cell density is indicated in Supplementary Table S3.
(§3) The synergistic effect in combination studies was determined using SynergyFinder^+ R package (RRID: SCR_019318; ref. [23]). Loewe score >5 indicates synergistic effect, −5 ≤ Loewe score ≤5 additive effect, and Loewe score < −5 antagonistic effect.
as §1

SW837 cells = assay: as above; format: cell-based; conditions: Homo sapiens
Experimental: as §2, §3, §1

Adenosine A2A = Adenosine A2A (Homo sapiens, UniProt P29274); assay: 41-target safety off-target activity panel
Adrenergic α1A = Adrenergic α1A (Homo sapiens, UniProt P35348); assay: 41-target safety off-target activity panel
Adrenergic α2A = Adrenergic α2A (Homo sapiens, UniProt P08913); assay: 41-target safety off-target activity panel
Adrenergic β1 = Adrenergic β1 (Homo sapiens, UniProt P08588); assay: 41-target safety off-target activity panel
Cannabinoid CB1 = Cannabinoid CB1 (Homo sapiens, UniProt P21554); assay: 41-target safety off-target activity panel
Cholecystokinin CCK1 = Cholecystokinin CCK1 (Homo sapiens, UniProt P32238); assay: 41-target safety off-target activity panel
Dopamine D1 = Dopamine D1 (Homo sapiens, UniProt P21728); assay: 41-target safety off-target activity panel
Histamine H1 = Histamine H1 (Homo sapiens, UniProt P35367); assay: 41-target safety off-target activity panel
Acetylcholine M2 = Acetylcholine M2 (Homo sapiens, UniProt P08172); assay: 41-target safety off-target activity panel
Opioid δ = Opioid δ (Homo sapiens, UniProt P41143); assay: 41-target safety off-target activity panel
TK LCK = TK LCK (Homo sapiens, UniProt P06239); assay: 41-target safety off-target activity panel
Cholinesterase AChE = Cholinesterase AChE (Homo sapiens, UniProt P22303); assay: 41-target safety off-target activity panel
Phosphodiesterase PDE3A = Phosphodiesterase PDE3A (Homo sapiens, UniProt Q14432); assay: 41-target safety off-target activity panel
[3] = test system: Cardiovascular System (lead-II ECG, blood pressure); assay: In vivo safety pharmacology, GLP; design: species or system Beagle Dog; conditions: conscious Beagle dogs, single oral dose 50, 150 and 450 mg/kg
From the text: Supplementary Table S11. In vivo safety pharmacology of glecirasib.
Organ Species/Strain Gender/No. per Group Noteworthy Findings GLP Compliance
System Beagle Dog 3/gender/group conscious and unrestrained Beagle dogs following a single oral dose of Yes

[4] = test system: S. typhimurium TA97a, TA98, TA100, TA102 and TA1535; assay: In vitro Ames; format: cell-based; conditions: 50, 150, 500, 1500 and 5000 μg/plate, presence or absence of S9 mix; GLP
Experimental: Study Species/Strain Gender/No. per Noteworthy Findings GLP Compliance
strains of S. typhimurium: 150, 500, 1500 and 5000 μg/plate in the presence or absence of S9 mix.
and TA1535 The result of this Ames test was concluded to be negative. […]

skin = assay: Phototoxicity Study; format: in vivo, England Guinea Pig; conditions: single dose 300 and 1000 mg/kg oral gavage followed by UV irradiation; GLP

Adenosine A2A, sequence (P29274 whole entry): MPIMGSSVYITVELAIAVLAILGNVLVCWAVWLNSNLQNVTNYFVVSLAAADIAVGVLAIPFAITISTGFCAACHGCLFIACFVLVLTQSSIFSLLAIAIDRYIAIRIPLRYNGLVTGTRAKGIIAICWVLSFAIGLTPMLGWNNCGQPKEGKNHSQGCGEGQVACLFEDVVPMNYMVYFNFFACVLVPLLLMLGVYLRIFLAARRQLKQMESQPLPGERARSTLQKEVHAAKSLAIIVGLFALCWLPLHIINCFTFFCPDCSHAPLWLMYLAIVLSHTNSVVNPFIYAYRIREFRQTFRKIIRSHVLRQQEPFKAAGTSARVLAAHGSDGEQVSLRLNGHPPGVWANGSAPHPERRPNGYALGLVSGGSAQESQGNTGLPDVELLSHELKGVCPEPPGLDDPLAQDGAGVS
Histamine H1, sequence (P35367 whole entry): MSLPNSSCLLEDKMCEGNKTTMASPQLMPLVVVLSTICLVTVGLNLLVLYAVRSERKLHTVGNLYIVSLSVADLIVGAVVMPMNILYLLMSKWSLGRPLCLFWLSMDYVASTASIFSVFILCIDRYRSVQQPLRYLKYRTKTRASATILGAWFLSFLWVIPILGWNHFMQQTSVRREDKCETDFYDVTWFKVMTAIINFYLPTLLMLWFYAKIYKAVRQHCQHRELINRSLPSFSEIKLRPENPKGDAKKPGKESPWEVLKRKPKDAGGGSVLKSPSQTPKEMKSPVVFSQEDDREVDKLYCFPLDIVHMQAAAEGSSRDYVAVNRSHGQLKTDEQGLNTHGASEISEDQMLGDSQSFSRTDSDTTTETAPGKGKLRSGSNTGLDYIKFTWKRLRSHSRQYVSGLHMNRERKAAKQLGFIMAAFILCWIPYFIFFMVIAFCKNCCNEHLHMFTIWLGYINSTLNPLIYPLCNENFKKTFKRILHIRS
Adrenergic β1, sequence (P08588 whole entry): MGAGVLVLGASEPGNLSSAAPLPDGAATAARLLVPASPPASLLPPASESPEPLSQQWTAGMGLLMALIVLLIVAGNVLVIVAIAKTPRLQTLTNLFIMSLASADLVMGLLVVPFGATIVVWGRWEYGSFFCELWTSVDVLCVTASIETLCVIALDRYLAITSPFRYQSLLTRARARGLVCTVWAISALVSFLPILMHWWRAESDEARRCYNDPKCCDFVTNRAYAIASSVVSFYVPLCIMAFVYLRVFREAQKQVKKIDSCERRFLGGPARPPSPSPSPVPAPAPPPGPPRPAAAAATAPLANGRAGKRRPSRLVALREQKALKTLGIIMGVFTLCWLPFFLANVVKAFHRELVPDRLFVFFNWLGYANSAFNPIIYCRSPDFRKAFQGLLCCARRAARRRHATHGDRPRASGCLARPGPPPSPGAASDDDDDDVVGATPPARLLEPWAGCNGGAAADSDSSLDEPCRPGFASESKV
Dopamine D1, sequence (P21728 whole entry): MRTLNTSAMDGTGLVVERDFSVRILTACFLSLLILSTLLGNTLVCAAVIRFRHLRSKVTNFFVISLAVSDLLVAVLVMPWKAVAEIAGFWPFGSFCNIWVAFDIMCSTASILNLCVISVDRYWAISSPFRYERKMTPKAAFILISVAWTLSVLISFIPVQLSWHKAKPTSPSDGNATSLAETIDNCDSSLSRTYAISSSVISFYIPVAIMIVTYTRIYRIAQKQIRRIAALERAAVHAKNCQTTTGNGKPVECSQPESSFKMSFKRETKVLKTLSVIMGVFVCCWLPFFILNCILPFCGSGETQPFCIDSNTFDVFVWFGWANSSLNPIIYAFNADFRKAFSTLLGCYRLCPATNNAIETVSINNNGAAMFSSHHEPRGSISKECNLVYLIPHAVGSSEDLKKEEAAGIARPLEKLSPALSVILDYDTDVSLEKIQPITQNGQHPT
Cholecystokinin CCK1, sequence (P32238 whole entry): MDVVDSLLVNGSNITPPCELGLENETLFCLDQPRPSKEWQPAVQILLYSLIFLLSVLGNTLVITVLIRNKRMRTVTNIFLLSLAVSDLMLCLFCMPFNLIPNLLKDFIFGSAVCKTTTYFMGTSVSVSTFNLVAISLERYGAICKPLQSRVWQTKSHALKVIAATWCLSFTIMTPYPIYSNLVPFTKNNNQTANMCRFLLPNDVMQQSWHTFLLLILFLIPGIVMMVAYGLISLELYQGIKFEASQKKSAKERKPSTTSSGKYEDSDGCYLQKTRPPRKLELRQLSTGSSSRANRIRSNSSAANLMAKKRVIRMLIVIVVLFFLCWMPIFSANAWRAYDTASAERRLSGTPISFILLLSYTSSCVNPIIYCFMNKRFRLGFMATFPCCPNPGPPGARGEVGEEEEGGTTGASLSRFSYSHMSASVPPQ
Acetylcholine M2, sequence (P08172 whole entry): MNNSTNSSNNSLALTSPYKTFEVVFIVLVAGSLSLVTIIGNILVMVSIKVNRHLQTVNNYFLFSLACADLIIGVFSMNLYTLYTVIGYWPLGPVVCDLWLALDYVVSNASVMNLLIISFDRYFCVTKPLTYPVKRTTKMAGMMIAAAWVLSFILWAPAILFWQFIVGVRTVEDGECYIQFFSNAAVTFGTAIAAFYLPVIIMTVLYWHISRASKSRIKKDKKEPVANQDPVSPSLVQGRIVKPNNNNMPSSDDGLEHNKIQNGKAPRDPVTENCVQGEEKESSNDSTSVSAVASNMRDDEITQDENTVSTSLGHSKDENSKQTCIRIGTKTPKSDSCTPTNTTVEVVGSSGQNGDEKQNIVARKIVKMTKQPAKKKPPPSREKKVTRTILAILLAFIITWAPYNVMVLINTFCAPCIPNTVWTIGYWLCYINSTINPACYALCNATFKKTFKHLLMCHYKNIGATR
Cannabinoid CB1, sequence (P21554 whole entry): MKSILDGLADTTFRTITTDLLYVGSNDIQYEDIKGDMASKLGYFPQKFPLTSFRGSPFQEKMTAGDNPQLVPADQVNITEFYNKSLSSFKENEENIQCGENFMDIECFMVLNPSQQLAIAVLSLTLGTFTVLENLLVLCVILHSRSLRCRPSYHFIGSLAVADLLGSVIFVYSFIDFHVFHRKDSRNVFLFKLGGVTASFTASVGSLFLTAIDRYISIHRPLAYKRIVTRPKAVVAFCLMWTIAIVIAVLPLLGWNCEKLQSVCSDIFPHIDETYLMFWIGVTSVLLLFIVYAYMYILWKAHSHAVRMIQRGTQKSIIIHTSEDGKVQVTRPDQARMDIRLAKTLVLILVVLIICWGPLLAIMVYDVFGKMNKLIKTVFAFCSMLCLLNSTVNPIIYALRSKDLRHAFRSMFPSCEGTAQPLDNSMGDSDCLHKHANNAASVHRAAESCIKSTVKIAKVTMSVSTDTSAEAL
Adrenergic α1A, sequence (P35348 whole entry): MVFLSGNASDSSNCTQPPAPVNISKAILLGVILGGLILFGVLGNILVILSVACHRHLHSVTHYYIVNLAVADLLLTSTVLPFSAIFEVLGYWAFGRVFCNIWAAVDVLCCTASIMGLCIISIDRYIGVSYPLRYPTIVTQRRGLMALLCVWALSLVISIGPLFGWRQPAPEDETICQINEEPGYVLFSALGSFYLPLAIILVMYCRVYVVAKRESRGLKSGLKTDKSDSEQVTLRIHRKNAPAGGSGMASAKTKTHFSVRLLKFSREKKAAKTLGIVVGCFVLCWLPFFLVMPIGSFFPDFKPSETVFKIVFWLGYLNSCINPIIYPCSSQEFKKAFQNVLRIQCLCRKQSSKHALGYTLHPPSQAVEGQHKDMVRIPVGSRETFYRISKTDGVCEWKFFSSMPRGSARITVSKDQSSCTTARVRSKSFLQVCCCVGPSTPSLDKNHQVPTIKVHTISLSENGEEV
Adrenergic α2A, sequence (P08913 whole entry): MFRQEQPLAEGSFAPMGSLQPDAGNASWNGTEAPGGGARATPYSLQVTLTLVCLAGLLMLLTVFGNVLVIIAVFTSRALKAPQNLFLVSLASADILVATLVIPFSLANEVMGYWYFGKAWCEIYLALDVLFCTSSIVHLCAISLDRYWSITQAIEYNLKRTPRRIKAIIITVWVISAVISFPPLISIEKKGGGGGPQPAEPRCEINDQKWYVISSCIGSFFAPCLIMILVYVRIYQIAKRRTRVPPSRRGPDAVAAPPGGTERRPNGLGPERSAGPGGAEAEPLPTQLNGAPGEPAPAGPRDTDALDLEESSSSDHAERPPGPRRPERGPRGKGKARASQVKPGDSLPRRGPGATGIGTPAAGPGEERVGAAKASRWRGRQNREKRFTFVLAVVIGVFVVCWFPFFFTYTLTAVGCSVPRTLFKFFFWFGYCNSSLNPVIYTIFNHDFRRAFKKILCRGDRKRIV
Opioid δ, sequence (P41143 whole entry): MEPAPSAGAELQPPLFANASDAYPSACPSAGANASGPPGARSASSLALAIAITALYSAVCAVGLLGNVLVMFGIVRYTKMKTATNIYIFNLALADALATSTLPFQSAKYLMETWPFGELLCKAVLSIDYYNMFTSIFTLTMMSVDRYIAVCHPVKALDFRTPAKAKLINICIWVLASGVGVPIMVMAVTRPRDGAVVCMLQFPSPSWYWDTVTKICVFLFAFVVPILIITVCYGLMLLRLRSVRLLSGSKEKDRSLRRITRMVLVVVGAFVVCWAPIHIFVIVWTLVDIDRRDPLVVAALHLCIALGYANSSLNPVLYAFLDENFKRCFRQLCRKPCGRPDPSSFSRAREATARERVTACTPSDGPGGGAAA

C=CC(=O)N1CCN(c2c(C#N)c(=O)n(-c3c(C)ccnc3C(C)C)c3nc(-c4c(N)c(F)c(F)c(F)c4F)c(Cl)cc23)CC1 [Glecirasib]
IC50 [1]: 7.16 nM | covalently bound targets among 9,378 unique cysteine-containing peptides [2]: the Cys12 peptide in KRAS G12C is the only covalently bound target | inhibition at 0.000391 µM (SW1463 cells): -2% | inhibition at 0.00156 µM (SW1463 cells): 1% | inhibition at 0.025 µM (SW1463 cells): 29% | inhibition at 0.1 µM (SW1463 cells): 55% | inhibition at 0.4 µM (SW1463 cells): 69% | inhibition at 0.000195 µM (SW837 cells): -6% | inhibition at 0.000781 µM (SW837 cells): 8% | inhibition at 0.00313 µM (SW837 cells): 20% | inhibition at 0.0125 µM (SW837 cells): 48% | inhibition at 0.05 µM (SW837 cells): 64% | inhibition at 0.2 µM (SW837 cells): 70% | inhibition at 10 µM (Adenosine A2A): 4.28% | Mean % activation (Adenosine A2A; Glecirasib 10 μM): -1.49% | inhibition at 10 µM (Adrenergic α1A): 22.9% | Mean % activation (Adrenergic α1A; Glecirasib 10 μM): 27.61% | inhibition at 10 µM (Adrenergic α2A): 27.9% | Mean % activation (Adrenergic α2A; Glecirasib 10 μM): 22.71% | inhibition at 10 µM (Adrenergic β1): 30.9% | Mean % activation (Adrenergic β1; Glecirasib 10 μM): 16.84% | inhibition at 10 µM (Cannabinoid CB1): -16.5% | Mean % activation (Cannabinoid CB1; Glecirasib 10 μM): -2.83% | inhibition at 10 µM (Cholecystokinin CCK1): 44.1% | Mean % activation (Cholecystokinin CCK1; Glecirasib 10 μM): 1.74% | inhibition at 10 µM (Dopamine D1): 4.56% | Mean % activation (Dopamine D1; Glecirasib 10 μM): 1.51% | inhibition at 10 µM (Histamine H1): 16.2% | Mean % activation (Histamine H1; Glecirasib 10 μM): 1.79% | inhibition at 10 µM (Acetylcholine M2): 22.5% | Mean % activation (Acetylcholine M2; Glecirasib 10 μM): 3.59% | inhibition at 10 µM (Opioid δ): 33% | Mean % activation (Opioid δ; Glecirasib 10 μM): 8.42% | inhibition at 10 µM (TK LCK): 0.93% | inhibition at 10 µM (Cholinesterase AChE): -8.33% | inhibition at 10 µM (Phosphodiesterase PDE3A): 12.5% | Noteworthy Findings, cardiovascular [3]: No effects on the lead-II ECG; also recorded: no risk of QT interval prolongation | Ames test result [4]: negative | phototoxicity result (skin): No phototoxicity was observed; also recorded: negative
